Laboratory results: patent US11339193B2, “CDP protein secretion inhibitors” (KEZAR LIFE SCIENCES, priority 2018, dated 2022)
Numbered stars: 1 amine (or outer) side, 2 acyl side, 3 side chain; on linkers, the order of the positions; unused ones are H or OH. Square brackets hold non-standard residues; d marks the D form. Peptide text beside a SMILES is read from it. NMeAla(5-Cl-benzothien-3-yl) = CN[C@@H](Cc1csc2ccc(Cl)cc12)C(=O)O; Ala(1-cyclohexenyl) = N[C@@H](CC1=CCCCC1)C(=O)O; Butanoyl(2R-oxy,4-CN) = N#CCC[C@@H](O)C(=O)O; X22 = CCCC[C@@H](C)C[C@H](N[*:1])C(=O)[*:2]; Abu(4,4,4-F3) = N[C@@H](CC(F)(F)F)C(=O)O; X12 = O=C([C@H](CC1=CCCC1)N[*:1])[*:2]; Ala(cPent) = N[C@@H](CC1CCCC1)C(=O)O; NMeCha = CN[C@@H](CC1CCCCC1)C(=O)O; NMeF = CN[C@@H](Cc1ccccc1)C(=O)O; aIle = CC[C@@H](C)[C@H](N)C(=O)O; Cha = N[C@@H](CC1CCCCC1)C(=O)O; NMeL = CN[C@@H](CC(C)C)C(=O)O; hLeu = CC(C)CC[C@H](N)C(=O)O; NMeA = CN[C@@H](C)C(=O)O; Nle = CCCC[C@H](N)C(=O)O; Nva = CCC[C@H](N)C(=O)O; Abu = CC[C@H](N)C(=O)O

Assays:
Format in all cases: cell-based
[1] = test system: PD1-ss+10aa/Gaussia Luciferase; test: Dox induced PD1-ss-Gluc assay; settings: Flp-In 293 T-REx cells, doxycycline, 24 hours; read-out: PD1ss Gluc IC50
Excerpt: Dox Induced PD1-ss-Gluc Assay
(§1) Flp-In 293 T-REx™ cells were transfected with pcDNA™5/FRT/TO plasmid inserted with cDNA encoding Gaussia Luciferase fused to the 3′ end of cDNA encoding PD1 signal sequence plus 10 amino acids (N-[…]-C) (SEQ ID NO:3). Transfected cells were selected for resistance to the selectable markers Hygromycin and Blasticidin to create a stable cell line that contained the PD1-ss+10aa/Gaussia Luciferase cDNA insert whose expression was regulated under the T-REx™ system. The day before assay, cells were trypsinized and plated in 384-well tissue culture plates. The next day, compound dilutions in DMSO/media containing doxycycline were added to the wells and incubated at 37° C., 5% CO2.

[2] = test system: TNFα-FL/Gaussia Luciferase; test: Dox induced TNFα-FL-Gluc assay; settings: Flp-In 293 T-REx cells, doxycycline, 24 hours; read-out: TNFa FL Gluc IC50
Excerpt: Dox Induced TNFα-FL-Gluc Assay
Flp-In 293 T-REx™ cells were transfected with pcDNA™5/FRT/TO plasmid inserted with cDNA encoding Gaussia Luciferase fused to the 3′ end of cDNA encoding full length TNFα (amino acids 1-233). Transfected cells were selected for resistance to the selectable markers Hygromycin and Blasticidin to create a stable cell line that contained the TNFα-FL/Gaussia Luciferase cDNA insert whose expression was regulated under the T-REx™ system. The day before assay, cells were trypsinized and plated in 384-well tissue culture plates. The next day, compound dilutions in DMSO/media containing doxycycline were added to the wells and incubated at 37° C., 5% CO2.

[3] = test system: NCI-H929 multiple myeloma cell line; test: H929 assay (cell viability, Celltiter-Glo); settings: Homo sapiens, NCI-H929; 48 hours, cell viability; read-out: H929 EC50
Procedure: The human multiple myeloma cell line NCI-H929 was cultured in Advanced RPMI 1640 media (Gibco@) supplemented with 6% fetal bovine serum, 2 mM Glutamine, and 1× Penicillin/Streptomycin. On the day of assay, cells were resuspended in RPMI 1640 media supplemented with 10% fetal bovine serum, 2 mM Glutamine, and 1× Penicillin/Streptmycin and plated in 384-well tissue culture plates and treated with compound dilutions in DMSO/media. Plates were incubated at 37° C., 5% CO2 for 48 hours. After 48 hours, Celltiter-Glo@ (Promega) was added to each well and luciferase signal was quantified using Tecan Infinite M1000 Pro for cell viability determination.

[4] = test system: Prl-ss+10aa/Gaussia Luciferase; test: Prl-ss-Gluc assay (constitutively active or 24 hr Dox inducible); settings: Flp-In 293 T-REx cells, 24 hours; read-out: Prl IC50
Excerpt: Constitutively Active Prl-ss-Gluc Assay
Flp-In 293 T-REx™ cells were transfected with pcDNA™5/FRT plasmid inserted with cDNA encoding Gaussia Luciferase fused to the 3′ end of cDNA encoding Prl signal sequence plus 10 amino acids (N-[…]-C) (SEQ ID NO:4). Transfected cells were selected for resistance to the selectable markers Hygromycin and Blasticidin to create a stable cell line that constitutively expressed the Prlss+10aa/Gaussia Luciferase fusion protein. The day before assay, cells were trypsinized and plated in 384-well tissue culture plates. The next day, culture media was removed from the wells and replaced with fresh media. Compound dilutions in DMSO/media were added to the wells and incubated at 37° C., 5% CO2.
24 hr Dox Inducible Prl-ss-Gluc Assay
as §1, with “Prl” for “PD1”, “NO:5).” for “NO:3).”, “Prl-ss+10aa/Gaussia” for “PD1-ss+10aa/Gaussia”

HER3ss-Gluc = test: HER3ss assay; settings: HEK-293T T-rex cells, transient transfection, doxycycline, 24 h; read-out: HER3 ss IC50
Procedure: The mature domain of secreted luciferase from Gaussia princeps (GLuc) was cloned into pcDNA5/FRT/TO. The signal sequence plus four amino acids of the mature domain from HER3 ([…]) (SEQ ID NO:8) were cloned upstream of GLuc mature domain and used in transient transfection experiment. HEK-293T T-rex cells were cultured in Dulbecco's modified Eagle's medium with 10% FBS at 5% CO2. Cells were plated 1×10e6 cells per well in a 6-well plate and incubated for 6 h. Cells were transiently transfected with HER3ss-Gluc using Lipofectamine 2000 (Invitrogen). After overnight incubation, transfected cells were replated in a clear-bottomed, black 96-well plate at a density of 20,000 cells per well. Six hours after plating, the cells were treated with doxycycline (1 μg/ml) and increasing concentrations of the indicated compounds for 24 h. Secreted luciferase in the conditioned media was quantified by luminescence using the BioLux Gaussia Luciferase Assay Kit (New England Biolabs, Ipswich, Mass., USA) and a SpectraMax M5 plate reader (Molecular Devices).

| SMILES | IC50 [1] | IC50 [2] | EC50 [3] | IC50 [4] | IC50 (HER3ss-Gluc) |
| --- | --- | --- | --- | --- | --- |
| CCCC[C@@H](C)C[C@@H]1NC(=O)[C@H](CC2=CCCC2)N(C)C(=O)[C@H](CC(C)C)NC(=O)[C@H](CC(C)C)N(C)C(=O)[C@H](C[C@H](C)CCCC)NC(=O)[C@@H](CCC#N)OC(=O)[C@H](C)N(C)C1=O [C-23] | 66 nM | 88 nM | 953 nM |  |  |
| CCCC[C@@H](C)C[C@@H]1NC(=O)[C@@H](CCC#N)OC(=O)[C@H](C)N(C)C(=O)[C@H](CC)NC(=O)[C@H](Cc2ccccc2)N(C)C(=O)[C@H](CC(C)C)NC(=O)[C@H](CC(C)C)N(C)C1=O [C-25] (HELM PEPTIDE1{[Abu].[meA].[N#CCC[C@@H](O[*:1])C(=O)[*:2]].[CCCC[C@@H](C)C[C@H](N[*:1])C(=O)[*:2]].[meL].L.[meF]}$PEPTIDE1,PEPTIDE1,1:R1-7:R2$$$V2.0) | 297 nM | 376 nM | 2360 nM |  |  |
| CCCC[C@@H](C)C[C@@H]1NC(=O)[C@@H](CCC#N)OC(=O)[C@H](C)N(C)C(=O)[C@H](CC(F)(F)F)NC(=O)[C@H](Cc2ccccc2)N(C)C(=O)[C@H](CC(C)C)NC(=O)[C@H](CC(C)C)N(C)C1=O [C-26] (cyclo(L[NMeF][Abu(4,4,4-F3)][NMeA][Butanoyl(2R-oxy,4-CN)][X22][NMeL])) | 59 nM | 92 nM | 1010 nM |  |  |
| CCCC[C@@H](C)C[C@@H]1NC(=O)[C@H](CC2CCCCC2)N(C)C(=O)[C@H](CC)NC(=O)[C@H](CC(C)C)N(C)C(=O)[C@H](C[C@H](C)CCCC)NC(=O)[C@@H](CCC#N)OC(=O)[C@H](C)N(C)C1=O [C-43] (cyclo([Abu][NMeCha][X22][NMeA][Butanoyl(2R-oxy,4-CN)][X22][NMeL])) | 67 nM | 211 nM | 593 nM | 1530 nM |  |
| CCCC[C@@H](C)C[C@@H]1NC(=O)[C@H](CC2CCCCC2)N(C)C(=O)[C@H](CCC)NC(=O)[C@H](CC(C)C)N(C)C(=O)[C@H](C[C@H](C)CCCC)NC(=O)[C@@H](CCC#N)OC(=O)[C@H](C)N(C)C1=O [C-44] (cyclo([NMeA][Butanoyl(2R-oxy,4-CN)][X22][NMeL][Nva][NMeCha][X22])) | 37 nM | 109 nM | 376 nM | 740 nM |  |
| CCCC[C@@H](C)C[C@@H]1NC(=O)[C@H](CC2CCCCC2)N(C)C(=O)[C@H](CC(C)C)NC(=O)[C@H](CC(C)C)N(C)C(=O)[C@H](CC2CCCCC2)NC(=O)[C@@H](CCC#N)OC(=O)[C@H](C)N(C)C1=O [C-45] (cyclo([Cha][NMeL]L[NMeCha][X22][NMeA][Butanoyl(2R-oxy,4-CN)])) | 248 nM | 911 nM | 4910 nM | 2500 nM |  |
| CCCC[C@@H](C)C[C@@H]1NC(=O)[C@H](CC2CCCCC2)N(C)C(=O)[C@H](CC(C)C)NC(=O)[C@H](CC(C)C)N(C)C(=O)[C@H](CC2CCCC2)NC(=O)[C@@H](CCC#N)OC(=O)[C@H](C)N(C)C1=O [C-47] (cyclo([Ala(cPent)][NMeL]L[NMeCha][X22][NMeA][Butanoyl(2R-oxy,4-CN)])) | 367 nM | 1130 nM | 6960 nM |  |  |
| CCCC[C@@H](C)C[C@@H]1NC(=O)[C@H](CC2CCCCC2)N(C)C(=O)[C@H](CC(C)C)NC(=O)[C@H](CC(C)C)N(C)C(=O)[C@H](CCCC)NC(=O)[C@@H](CCC#N)OC(=O)[C@H](C)N(C)C1=O [C-53] (cyclo(L[NMeCha][X22][NMeA][Butanoyl(2R-oxy,4-CN)][Nle][NMeL])) | 495 nM | 1560 nM | 5860 nM |  |  |
| CCCC[C@@H](C)C[C@@H]1NC(=O)[C@H](CC2CCCCC2)N(C)C(=O)[C@H](CC(C)C)NC(=O)[C@H](CC(C)C)N(C)C(=O)[C@H](CC2=CCCC2)NC(=O)[C@@H](CCC#N)OC(=O)[C@H](C)N(C)C1=O [C-55] (cyclo(L[NMeCha][X22][NMeA][Butanoyl(2R-oxy,4-CN)][X12][NMeL])) | 119 nM | 464 nM | 1870 nM |  |  |
| CCCC[C@@H](C)C[C@@H]1NC(=O)[C@H](CC2CCCCC2)N(C)C(=O)[C@H](CC(C)C)NC(=O)[C@H](CC(C)C)N(C)C(=O)[C@H](CC2=CCCCC2)NC(=O)[C@@H](CCC#N)OC(=O)[C@H](C)N(C)C1=O [C-56] (cyclo(L[NMeCha][X22][NMeA][Butanoyl(2R-oxy,4-CN)][Ala(1-cyclohexenyl)][NMeL])) | 94 nM | 238 nM | 1650 nM |  |  |
| CCCC[C@@H](C)C[C@@H]1NC(=O)[C@H](CC2CCCCC2)N(C)C(=O)[C@H](CC(C)C)NC(=O)[C@H](CC(C)C)N(C)C(=O)[C@H](CCC(C)C)NC(=O)[C@@H](CCC#N)OC(=O)[C@H](C)N(C)C1=O [C-60] (cyclo(L[NMeCha][X22][NMeA][Butanoyl(2R-oxy,4-CN)][hLeu][NMeL])) | 335 nM | 1120 nM | 4730 nM |  |  |
| CCCC[C@@H](C)C[C@@H]1NC(=O)[C@H](CC2CCCCC2)N(C)C(=O)[C@H](CC(C)C)NC(=O)[C@H](CC(C)C)N(C)C(=O)[C@H]([C@@H](C)CC)NC(=O)[C@@H](CCC#N)OC(=O)[C@H](C)N(C)C1=O [C-61] (cyclo(I[NMeL]L[NMeCha][X22][NMeA][Butanoyl(2R-oxy,4-CN)])) | 392 nM | 1890 nM | 4560 nM |  |  |
| CCCC[C@@H](C)C[C@@H]1NC(=O)[C@H](CC2CCCCC2)N(C)C(=O)[C@H](CC(C)C)NC(=O)[C@H](CC(C)C)N(C)C(=O)[C@H]([C@H](C)CC)NC(=O)[C@@H](CCC#N)OC(=O)[C@H](C)N(C)C1=O [C-62] (cyclo(L[NMeCha][X22][NMeA][Butanoyl(2R-oxy,4-CN)][aIle][NMeL])) | 277 nM | 1660 nM | 4220 nM |  |  |
| CC(C)C[C@@H]1NC(=O)[C@H](Cc2ccc3ccccc3c2)N(C)C(=O)[C@H](CC(C)C)NC(=O)[C@H](CC(C)C)N(C)C(=O)[C@H](CC(C)C)NC(=O)[C@@H](CCC#N)OC(=O)[C@H](C)N(C)C1=O [C-66] (HELM PEPTIDE1{L.[CN([C@@H](Cc1ccc2ccccc2c1)C(=O)[*:2])[*:1]].L.[meA].[N#CCC[C@@H](O[*:1])C(=O)[*:2]].L.[meL]}$PEPTIDE1,PEPTIDE1,1:R1-7:R2$$$V2.0) | 1040 nM | 2800 nM | 8800 nM |  |  |
| CC(C)C[C@@H]1NC(=O)[C@H](Cc2csc3ccc(Cl)cc23)N(C)C(=O)[C@H](CC(C)C)NC(=O)[C@H](CC(C)C)N(C)C(=O)[C@H](CC(F)(F)F)NC(=O)[C@@H](CCC#N)OC(=O)[C@H](C)N(C)C1=O [C-67] (cyclo(L[NMeA][Butanoyl(2R-oxy,4-CN)][Abu(4,4,4-F3)][NMeL]L[NMeAla(5-Cl-benzothien-3-yl)])) | 397 nM | 754 nM | 4090 nM |  | 9 nM |
